target: T1, human GPR119 (Homo sapiens, UniProt Q8TDV5); assay: Measurement of GPR119 signaling (cAMP assay) in cells stably transfected with human GPR119; format: cell-based; settings: cAMP stimulation; read-out: GPR119 HumC EC50
T1 sequence (Q8TDV5 1-308 limits assumed): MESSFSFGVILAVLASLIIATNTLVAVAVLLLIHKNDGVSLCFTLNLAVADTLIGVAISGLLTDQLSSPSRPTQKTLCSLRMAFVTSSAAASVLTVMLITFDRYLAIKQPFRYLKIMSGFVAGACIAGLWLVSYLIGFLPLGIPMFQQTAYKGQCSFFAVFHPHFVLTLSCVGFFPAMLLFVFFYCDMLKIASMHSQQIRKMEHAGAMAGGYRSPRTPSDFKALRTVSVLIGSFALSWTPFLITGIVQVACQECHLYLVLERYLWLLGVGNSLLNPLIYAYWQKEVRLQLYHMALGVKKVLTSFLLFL
Experimental: Measurement of GPR119 Signaling (Cyclic AMP (cAMP) Assay)
The adenylate cyclase assay was constructed following the LANCE™ cAMP Kit (Perkin Elmer, AD0264) instructions.
The reaction was stopped by incubating with the supplied detection buffer containing the europium chelate of the Eu-SA/Biotin-cAMP tracer for 3 hours. The assay was performed in duplicate in a 384 well plate for duplicate plates and fluorescence was measured at 665 nm. Basal activity was determined using a DMSO control and maximum response was defined as cAMP stimulation produced by an internal agonist control. Standard cAMP concentrations were assayed concurrently for conversion of fluorescence signal to cAMP level. The data was analyzed using 4-parameter curve fit in Microsoft Excel.
Measurement of GPR119 Signaling (cAMP Homogenous Time Resolved Fluorescence (HTRF) Assay)
Chinese hamster ovary (CHO) cell lines stably transfected with the permissive guanine nucleotide binding protein alpha 15 (Gα15) and murine GPR119 were maintained in DMEM media containing FBS, penicillin-streptomycin, puromycin, and G418 (geneticin). […] Agonist activation of the GPR119 receptor was measured in receptor transfected cells described above, treated with compounds of this invention, using a commercial homogenous time resolved fluorescence (HTRF) kit for measurement of cAMP (CisBio, Bedford, Mass.). The assay was performed in 96-well half-volume plates (murine) or 384-well plates (human) following the manufacturers instructions. Briefly, suspended cells were incubated with a dose titration of test compound at RT for 60 min, lysed, and incubated with HTRF reagents for an additional 60 min. The plate was read using an Envision multilabel reader (Perkin Elmer) adjusted to read time resolved fluorescence and the cAMP concentrations were extrapolated from a cAMP calibration curve. […] The concentration of test compound required to stimulate a half-maximal response (EC50), and efficacy as compared to an internal agonist control, was determined from a sigmoidal 4-parameter curve fit of the resulting plot of normalized activity versus compound concentration.

EC50 [nM] | Structure (SMILES)
0.49 | CC1(OC(=O)N2CCC([C@H]3C[C@H]3CCOc3ccc(CC(=O)N4CC(F)(F)C4)c(F)c3)CC2)CC1 [Example 65]
1.4 | O=C(Cc1ccc(OCC[C@@H]2C[C@@H]2C2CCN(C(=O)OC3CCC3)CC2)cc1F)N1CCC1 [Example 71]
2.4 | CC(C)c1noc(N2CCC([C@H]3C[C@H]3CCOc3cc(F)c(CC(=O)N4CC(C)(O)C4)c(F)c3)CC2)n1 [Example 112]

same assay, conditions: stated in the example text; cAMP stimulation, human GPR119; read-out: GPR119 Human EC50

Structure (SMILES) | EC50 [nM]
CC(C)(C)NC(=O)N1CCC([C@H]2C[C@H]2CCOc2ccc(-n3cnnn3)cc2)CC1 [Example 76, N-(tert-butyl)-4-((1R,2S)-2-(2-(4-(1H-tetrazol-1-yl)phenoxy)ethyl)cyclopropyl)piperidine-1-carboxamide] | 14.7
CCS(=O)(=O)c1ccc(OCC[C@H]2C[C@H]2C2CCN(c3nc(COC)no3)CC2)cc1F (stereo in doubt) [Example 15, 4-((1S,2R)-2-{2-[4-(ethylsulfonyl)-3-fluorophenoxy]ethyl}cyclopropyl)-1-[3-(methoxymethyl)-1,2,4-oxadiazol-5-yl]piperidine] | 8.4
CC1(OC(=O)N2CCC([C@H]3C[C@H]3CCOc3ccc(-n4cncn4)cn3)CC2)CC1 [Example 34, 1-methylcyclopropyl 4-[(1R,2S)-2-(2-{[5-(1H-1,2,4-triazol-1-yl)pyridin-2-yl]oxy}ethyl)cyclopropyl]piperidine-1-carboxylate] | 0.88
CC(C)(C)OC(=O)N1CCC([C@H]2C[C@H]2CCOc2ccc(S(C)(=O)=O)cc2)CC1 [Example 35, tert-butyl 4-((1R,2S)-2-{2-[4-(methylsulfonyl)phenoxy]ethyl}cyclopropyl) piperidine-1-carboxylate] | 0.9
CS(=O)(=O)c1ccc(OCC[C@@H]2C[C@@H]2C2CCN(C(=O)CC3CCCCC3)CC2)nc1 [Example 85, 2-(2-{(1S,2R)-2-[1-(cyclohexylacetyl)piperidin-4-yl]cyclopropyl}ethoxy)-5-(methylsulfonyl)pyridine] | 11.8

Results, then the compound that gave them:

EC50 [nM] | Structure (SMILES)
0.1 | Cc1cc(-n2cnnn2)cnc1OCC[C@@H]1C[C@@H]1C1CCN(c2nc(C(C)C)no2)CC1 [Example 225, 2-(2-{(1S,2R)-2-[1-(3-isopropyl-1,2,4-oxidiazol-5-yl)piperidin-4-yl]cyclopropyl}ethoxy]-3-methyl-5-(1H-tetrazol-1-yl)pyridine]
2.5 | CC(C)c1noc(N2CCC([C@H]3C[C@H]3CCOc3ccc(Cc4nnco4)c(F)c3)CC2)n1 [Example 256, 4-((1R,2S)-2-{2-[3-fluoro-4-(1,3,4-oxadiazol-2-ylmethyl)phenoxy]ethyl}cyclopropyl)-1-(3-isopropyl-1,2,4-oxadiazol-5-yl)piperidine]

same assay, conditions: table column; cAMP stimulation, human GPR119; read-out: GPR119 Human EC50

Structure (SMILES) | EC50 [nM]
CCCOC(=O)N1CCC([C@H]2C[C@H]2CCOc2ccc(-n3cnnn3)cc2)CC1 [Example 7] | 0.8
O=C(OCc1ccccc1)N1CCC([C@H]2C[C@H]2CCOc2ccc(-n3cnnn3)cn2)CC1 [Example 33] | 15
CC(C)(C)OC(=O)N1CCC([C@H]2C[C@H]2CCOc2ccc(-n3cnnn3)cc2)CC1 [Example 5] | 7
CCOC(=O)N1CCC([C@H]2C[C@H]2CCOc2ccc(-n3cnnn3)cc2)CC1 [Example 6] | 2
CS(=O)(=O)c1ccc(OCC[C@@H]2C[C@@H]2C2CCN(C(=O)OCC3CCC3)CC2)nc1 [Example 22] | 5
Cc1nc(C#N)cc(OCC[C@@H]2C[C@@H]2C2CCN(C(=O)OCC(C)C)CC2)n1 [Example 48] | 1
CC(C)CC(=O)N1CCC([C@H]2C[C@H]2CCOc2ccc(S(C)(=O)=O)c(F)c2)CC1 [Example 94] | 19
CS(=O)(=O)c1ccc(OCC[C@@H]2C[C@@H]2C2CCN(C(=O)CC3CCC3)CC2)cc1F [Example 92] | 10
O=C(CC1CC2C=CC1C2)N1CCC([C@H]2C[C@H]2CCOc2ccc(-n3cnnn3)cc2)CC1 (stereo partly drawn) [Example 84] | 3.7

Further lines, results first:

EC50 [nM] | Structure (SMILES)
1.7 | CC(C)(C)c1nc(N2CCC([C@H]3C[C@H]3CCOc3ccc(S(C)(=O)=O)cn3)CC2)no1 [Example 236]
2.1 | Cc1nc2c(o1)CN(C(=O)Cc1ccc(OCC[C@@H]3C[C@@H]3C3CCN(c4nc(C(C)C)no4)CC3)cc1F)CC2 [Example 183]
4.7 | CC(C)c1noc(N2CCC([C@H]3C[C@H]3CCOc3ccc(CC(=O)N4Cc5sccc5C(O)C4)c(F)c3)CC2)n1 (stereo partly drawn) [Example 189]
5 | CC(C)c1noc(N2CCC([C@H]3C[C@H]3CCOc3ccc(CC(=O)N(C)C4CCCC4)c(F)c3)CC2)n1 [Example 154]
1.8 | CC(C)c1noc(N2CCC([C@H]3C[C@H]3CCOc3ccc(CC(=O)N4CCc5oncc5C4)c(F)c3)CC2)n1 [Example 177]
8 | CCCc1noc(N2CCC([C@H]3C[C@H]3CCOc3ccc(S(C)(=O)=O)cn3)CC2)n1 [Example 211]
7.9 | CC(C)c1noc(N2CCC([C@H]3C[C@H]3CCOc3ccc(CC(=O)N(C)CCn4cncn4)c(F)c3)CC2)n1 [Example 168]
1.2 | CC(C)c1noc(N2CCC([C@H]3C[C@H]3CCOc3ccc(CC(=O)N4CCCC4)c(F)c3)CC2)n1 [Example 146]
1.3 | CC(C)c1noc(N2CCC([C@H]3C[C@H]3CCOc3ccc(CC(=O)N4CCc5nccnc5C4)c(F)c3)CC2)n1 [Example 193]
6 | CC(C)c1noc(N2CCC([C@H]3C[C@H]3CCOc3ccc(CC(=O)N4CC(O)C4)c(F)c3)CC2)n1 [Example 139]
2.3 | Cc1nc(CN(C)C(=O)Cc2ccc(OCC[C@@H]3C[C@@H]3C3CCN(c4nc(C(C)C)no4)CC3)cc2F)cs1 [Example 163]
3.2 | CC(C)c1noc(N2CCC([C@H]3C[C@H]3CCOc3ccc(CC(=O)NC4CCC4)c(F)c3)CC2)n1 [Example 151]
10.6 | COCCc1noc(N2CCC([C@H]3C[C@H]3CCOc3ccc(-n4cnnn4)cn3)CC2)n1 [Example 232]
2 | CC(C)c1noc(N2CCC([C@H]3C[C@H]3CCOc3ccc(CC(=O)N(C)C4CCS(=O)(=O)C4)c(F)c3)CC2)n1 (stereo partly drawn) [Example 162]
2.6 | CC(C)c1noc(N2CCC([C@H]3C[C@H]3CCOc3ccc(CC(=O)N4CC(O)(C(F)(F)F)C4)c(F)c3)CC2)n1 [Example 186]
5.3 | CC(C)c1noc(N2CCC([C@H]3C[C@H]3CCOc3ccc(CC(=O)N4CC[C@@H](F)C4)cc3)CC2)n1 [Example 134]
4.1 | O=C(c1c(F)cc(OCC[C@@H]2C[C@@H]2C2CCN(c3nc4cnccn4n3)CC2)cc1F)C1CC1 [Example 252]
0.1 | CC(C)c1noc(N2CCC([C@H]3C[C@H]3CCOc3cc(F)c(C(=O)C4CC4)c(F)c3)CC2)n1 [Example 120]
2.2 | CC(C)c1noc(N2CCC([C@H]3C[C@H]3CCOc3ccc(CC(=O)N4CCc5ccsc5C4)c(F)c3)CC2)n1 [Example 173]
0.84 | CC(C)c1noc(N2CCC([C@H]3C[C@H]3CCOc3ccc(CC(=O)N4CCOCC4)c(F)c3)CC2)n1 [Example 142]

From patent US8957062B2, “Substituted cyclopropyl compounds, compositions containing such compounds and methods of treatment” (Merck Sharp & Dohme Corp., priority 2011, dated 2015)
